These results are taken from PMC9496155, “Amaryllidaceae Alkaloids Decrease the Proliferation, Invasion, and Secretion of Clinically Relevant Cytokines by Cultured Human Colon Cancer Cells” (Biomolecules, 2022).

One experiment concerns HCT-116^+/+. The experiment is described as follows: MTT viability assay, HCT-116+/+. Type of experiment: cell-based, human. To be noted: functional p53, mean of six replicates of one experiment, read-out: IC50 Cancer Cell Lines (C) HCT-116+/+. On the procedure: (§1) HCT-116 (CCL-247), LoVo (CCL-229), DLD-1 (CCL-221), HT-29 (HTB-38) and CoN (CCD-841) human CRC cells were obtained from the ATCC (Manassas, VA, USA). HCT-116 cells were cultured in Dulbecco’s Modified Eagle’s Medium (DMEM; Corning Cellgro, Corning, NY, USA) for the invasion assays or RPMI-1640 medium (Lonza, Westburg, The Netherlands) for all other assays. The LoVo, DLD-1, and HT-29 cell lines were grown in RPMI-1640 for all experiments. Media were supplemented with 10% fetal bovine serum (FBS; Gibco, Waltham, MA, USA or Greiner Bio-One, Vilvoorde, Belgium), 100 U/mL penicillin, and 100 µg/mL streptomycin (Gibco, Waltham, MA). Cells were grown at 37 °C and 5% CO2 in a humidified atmosphere. The CoN cells were cultured in Eagle’s Minimum Essential Medium (Lonza, Westburg, The Netherlands) supplemented with 10% FBS (South America origin, Greiner Bio-One, Vilvoorde, Belgium). HCT-116 p53^-/- cells were obtained from Denis L.J. LaFontaine, Université Libre de Bruxelles, Brussels, Belgium.
(§2) Effects of compounds on viability were assessed by means of 3-(4,5-dimethylthiazol-2-yl)-2,5-diphenyltetrazolium bromide (MTT; Sigma-Aldrich, Diegem, Belgium) colorimetric assay as previously reported. Briefly, cells were seeded in flat-bottom 96-well plates at the appropriate cell density 24 h prior to the exposure or not to the compound of interest. Each compound was first solubilized in dimethylsulfoxide (DMSO) at 10^−2 M concentration and further diluted in a serial manner in the culture medium. Nine concentrations ranging from 10 nM to 100 µM were tested in sextuplicate within the assay. Evaluation of the cell viability was conducted after 72 h of exposure to the compound by means of MTT assay.

A further experiment concerns HT-29. The experiment is described as follows: MTT viability assay, HT-29. To be noted: TP53 mutant, mean of six replicates of one experiment, read-out: IC50 Cancer Cell Lines (C) HT-29. It counts as cell-based, human. On the procedure: as §1, §2
Experiment [1] has as its system Cancer Cell Lines (LoVo, HCT-116^+/+, HCT-116^-/-, HT-29, DLD-1). As to the kind of experiment: MTT viability assay, mean over the five colon cancer cell lines and ratio to CoN. Type of experiment: cell-based, human. Particulars: for Ratio N/C: IC50 CoN / mean IC50 cancer cells. On the procedure:
as §1, §2

The subject of the next experiment is LoVo. As to the kind of experiment: MTT viability assay, LoVo. Type of experiment: cell-based, human. Particulars: 72 h of exposure, TP53 wild type, mean of six replicates of one experiment, read-out: IC50 Cancer Cell Lines (C) LoVo. On the procedure:
as §1, §2

A further experiment has as its system DLD-1. The experiment is described as follows: MTT viability assay, DLD-1. It counts as cell-based, human. To be noted: TP53 mutant, mean of six replicates of one experiment, read-out: IC50 Cancer Cell Lines (C) DLD-1. On the procedure: as §1, §2
Another experiment relates to CoN. As to the kind of experiment: MTT viability assay, CoN normal colon epithelial cell line. It counts as cell-based, human. To be noted: 72 h of exposure, mean of six replicates of one experiment, read-out: IC50 Normal Cell Line (N) CoN. On the procedure:
as §1, §2

The subject of another experiment is HCT-116^-/-. The experiment is described as follows: MTT viability assay, HCT-116-/- (p53-null). To be noted: mean of six replicates of one experiment, read-out: IC50 Cancer Cell Lines (C) HCT-116-/-. Type of experiment: cell-based, human. On the procedure: as §1, §2
The next experiment deals with MMP-1, -2, -7, -9, -13. As to the kind of experiment: Luminex assay of MMP secretion in HCT-116 and LoVo cell supernatants. Type of experiment: cell-based, human. Particulars: 6 µM; 24 h; both cell lines (HCT-116, LoVo). An excerpt:
(§3) We ordered a customized Luminex® assay to quantify 15 targets at once from Biotechne (reference LXSAHM-15; R&D Systems, Abingdon, U.K.). The 15 targets were chosen on the basis of the literature as follows: the relevant metalloproteinases MMP-1, -2, -7, -9, -13 [49] and the cytokines associated with dismal prognosis or shorter disease-free survival period: C-C motif chemokine ligand (CCL) -4, CCL-22, Flt-3 ligand, IL-1β, IL-2, IL-6, IL-8, interferon gamma (IFNγ), vascular endothelial growth factor (VEGF), and pentraxin-3 [50]. Samples were prepared as follows: HCT-116 or LoVo cells were seeded in 6-well plates and allowed to adhere and grow until they reached 70% confluency. The culture medium was replaced by 1.5 mL of culture medium containing only 0.5% of FBS with or without the compounds to be tested (NAR at 80 nM, LYC at 6 µM, and HAE at 6 µM). After 24 h of treatment, supernatants were collected, aliquoted, and kept frozen at −80 °C. Three independent series of samples were prepared. […] We thus decided to concentrate several aliquots of our supernatant samples by centrifugation of 500 µL of supernatant with Amicon Ultra 0.5 mL filters characterized by a 3 kDa cut-off (UFC500324; Millipore, Merck, Hoeilaart, Belgium) leading to a final volume of 150 µL (3.3 times concentrated). The Luminex® assay was conducted according to manufacturer’s recommendations. Data were collected on a Bioplex-200 (Bio-Rad, Temse, Belgium).

The test system of experiment [2] is subpanel of CRC cell lines. Particulars: NCI DTD 60 cell line screen; cited from earlier work.
A further experiment has as its system HCT-116 cells. The experiment is described as follows: Invasion assay, Matrigel-coated Boyden chambers, HCT-116. It counts as cell-based, human. To be noted: 1.5 µM, not dose-dependent. On the procedure:
Prior to seeding HCT-116 cells in the invasion chambers, the medium was removed and cells were washed twice with phosphate buffered saline and incubated in DMEM lacking FBS for 48 h before seeding at a density of 1 × 10^5 cells/well into the upper portion of Matrigel-coated invasion chambers (Corning Biocoat, Corning, NY, USA), as described previously by our group in [47, 48]. The upper portion of each chamber contained cells suspended in serum-free DMEM containing DMSO vehicle alone or increasing concentrations of the Amaryllidaceae alkaloids NAR, LYC, and HAE. […] The lower portion of each chamber contained DMEM supplemented with 10% FBS. The FBS served as a chemoattractant. A polyethylene terephthalate (PET) membrane, containing 8 μm pores and coated with Matrigel basement membrane matrix, separated the upper and lower portions of the invasion chamber. After 24 h, chambers were removed and the cells that had not invaded were removed from within the chamber using a cotton swab. The cells that had invaded through and adhered to the bottom of the PET membrane separating the chambers were fixed with methanol and stained with 0.5% crystal violet (Sigma-Aldrich, St. Louis, MO, USA). Five random images were taken of the bottom of each membrane using a Cytation 5 Cell Imaging Multi-Mode Reader (Winooski, VT, USA). The cells in each image were counted using Image J (NIH, Bethesda, MD, USA).
To correct for the inhibitory effects of the Amaryllidaceae alkaloids on cell proliferation, cells from the same biological repeat were seeded in parallel in 24-well tissue culture plates at a density of 1 × 10^5 cells/well in DMEM containing 5% FBS (the average of the FBS concentrations in the upper and lower chambers) and supplemented with vehicle or increasing concentrations of the alkaloids. These wells were not coated with Matrigel. The medium was removed, and the adherent cells were trypsinized and counted 24 h after treatment using a hemocytometer. To compare cell invasion across treatments, cell invasion was corrected for adherent cell proliferation and expressed as % vehicle control.

A further experiment has as its system LoVo cells. The experiment is described as follows: Invasion assay, Matrigel-coated Boyden chambers, LoVo. To be noted: 6 µM, 24 h, corrected for adherent cells. It counts as cell-based, human.
A further experiment relates to IL-8. As to the kind of experiment: Luminex assay of IL-8 in HCT-116 and LoVo cell supernatants. Type of experiment: cell-based, human. To be noted: LYC 6 µM; 24 h; both cellular models.
Description: as §3, with “Data were collected on a Bioplex-200 (Bio-Rad, Temse, Belgium).” left out

The next experiment has as its system VEGF. The experiment is described as follows: Luminex assay of VEGF in HCT-116 and LoVo cell supernatants. To be noted: 6 µM; 24 h; both cell lines. It counts as cell-based, human.
Description: as §3, with “Data were collected on a Bioplex-200 (Bio-Rad, Temse, Belgium).” left out

Experiment [3] has as its system HT-29 p53-deficient and HCT-116 p53 wild-type models. On the set-up: method as in PMID 21220492. Particulars: cited from earlier work.
[4] abbreviates: Homo sapiens, HCT-116, 72 h of exposure.
Setting [5] is: Homo sapiens, HT-29, 72 h of exposure.
Setting [6] is: Homo sapiens, after 72 h of exposure, regardless of TP53 status, read-out: IC50s against all cancer cell lines.
Setting [7] is: Homo sapiens, mean over five cancer cell lines, MTT, 72 h, read-out: Mean IC50 Cancer Cells.
Where [8] appears, read: Homo sapiens, DLD-1, 72 h of exposure.

pIC50: −log10 of the molar value. Like-named read-outs stand apart in the source and are kept apart here. Bounds are passed on as bounds.

Take `N.N.[Cl][Pt][Cl]` [Cisplatin, cisplatin, reference compound]: the pIC50 was 5.35 in the experiment with HCT-116^+/+ (72 h of exposure); 4.66 in the experiment with HT-29 (72 h of exposure); 4.87 in experiment [1] (mean over five cancer cell lines, MTT, 72 h, read-out: Mean IC50 Cancer Cells); 5.08 in the experiment on LoVo; 4.83 with DLD-1 (72 h of exposure); 4.17 in the experiment on CoN. Also, in the experiment on HCT-116^-/- (72 h of exposure), the pIC50 is 4.76. Besides, in experiment [1], the “Ratio N/C” value is on record as 5. In addition, the “times less toxic toward non-cancerous cells” value in experiment [1] (mean IC50s of cancer cell lines vs CoN cell line) is reported as 5 times.
Turning to `CO[C@@H]1C=C[C@@]23c4cc5c(cc4CN(C[C@@H]2O)[C@H]3C1)OCO5` [HAE, haemanthamine], the pIC50 in the experiment with HCT-116^+/+ (setting [4]) is 5.72; with HT-29 (setting [5]), 5.60; in experiment [1] (setting [6]), approximately 5.52; in [1] (setting [7]), 5.57; with LoVo (Homo sapiens, LoVo) it was 5.34; in the experiment with DLD-1 (setting [8]), 5.62. For the same compound, the pIC50 was 4.07 in the experiment on CoN (Homo sapiens, Epithelial cell) and 5.66 in the experiment with HCT-116^-/- (setting [4]). Further, the “Ratio N/C” value in experiment [1] was 31. In addition, in the experiment on MMP-1, -2, -7, -9, -13, the “secretion of MMP-1, -2, and -7” value was “markedly decrease”. Besides, the GI50 in experiment [2] was 15800 nM.
Consider `O[C@H]1[C@H]2c3cc4c(cc3CN3CCC(=C[C@@H]1O)[C@H]23)OCO4` [LYC, lycorine], for which, in the experiment on HCT-116 cells, the “invasion of HCT-116 cells” value is given as “reduced”. Also, in the experiment with LoVo cells, the residual invasion rate turned out to be 37.4 ± 7.8%. In addition, the pIC50 in the experiment on HCT-116^+/+ (setting [4]) was 5.89; in the experiment on HT-29 (setting [5]) it was 5.41; in [1] (setting [6]), approximately 5.52; in experiment [1] (setting [7]), 5.49; in the experiment with LoVo (Homo sapiens, LoVo), 5.26; with DLD-1 (setting [8]), 5.54. Moreover, the pIC50 in the experiment on CoN (Homo sapiens, Epithelial cell) is 4.10; in the experiment on HCT-116^-/- (setting [4]), 5.59. Further, in experiment [1], the “Ratio N/C” value was 24. Also, the “secretion of MMP-1, -2, and -7” value in the experiment with MMP-1, -2, -7, -9, -13 is recorded as “markedly decrease”. The IL-8 secretion entry in the experiment on IL-8 was “reduced”. Further, in the experiment with VEGF, the “VEGF levels, times decreased” value is on record as not above 10 times. Further, the GI50 in experiment [2] was 1990 nM.
Regarding `O=C1N[C@H]2[C@H](O)[C@H](O)[C@@H](O)[C@H](O)[C@@H]2c2cc3c(c(O)c21)OCO3` [PANC, pancratistatin], the pIC50 in experiment [3] is 7.00; in the experiment with HCT-116^+/+ (setting [4]), 6.77; with HT-29 (setting [5]), 6.52; in [1] (setting [7]) it was 6.52; in the experiment with LoVo (Homo sapiens, LoVo) it was 6.23; with DLD-1 (setting [8]), 6.55. The pIC50 with CoN (Homo sapiens, Epithelial cell) is 5.62; with HCT-116^-/- (setting [4]), 6.80. The “Ratio N/C” value in experiment [1] turned out to be 8. Further, the GI50 in experiment [2] was 263 nM.
